One test concerns M5076. Briefly: In vivo cytotoxicity against mouse M5076 cells. Type of test: functional, organism-based.
In another test the test system is P388. Briefly: In vivo cytotoxicity against mouse P388 cells. The format is functional, organism-based.

Calls of active or inactive are those of the source. The rule behind the calls is not given here.

`O=C1N[C@H]2[C@H](O)[C@H](O)[C@@H](O)[C@H](O)[C@@H]2c2cc3c(c(O)c21)OCO3`: the outcome with M5076 and in the test on P388 was Active.

The values are drawn from ChEMBL document CHEMBL1159209, “Antineoplastic agents, 294. Variations in the formation of pancratistatin and related isocarbostyrils in Hymenocallis littoralis” (J Nat Prod, 1995).
